Design: species or system patients
Conditions: human, in vivo
Method: The intrapelvic perfusion therapy with cancer therapeutic agent of the present invention was carried out as explained below.
The perfusion was continued 30 minutes with keeping the difference between injection and aspiration flow rate was kept 20-25 [ml/min]. After performing this intrapelvic perfusion therapy, the blood of the intrapelvic circulation was dialyzed for 30 min.

For `N.N.[Cl][Pt][Cl]` [Cisplatin], the “percentage of drug leading from pelvic to systemic compartment during drug infusion” value was “about 20%”.
